Assay results published in publication PMC5095173, “Disulfide-activated protein kinase G Iα regulates cardiac diastolic relaxation and fine-tunes the Frank–Starling response” (Nature Communications, 2016).

What was measured:
WT PKGIα = assay: Oxidation of recombinant WT PKGIα to disulfide dimer (SDS-PAGE); format: biochemical, human; details: 10 mM lipoic acid, 2 h on ice; confirmed by SDS-PAGE
Description: A pCDNA3 expression vector encoding human FLAG-tagged PKGIα (ref. [41]) underwent site-directed mutagenesis to generate constructs for untagged WT, C42S, M438G and C42S/M438G PKGIα. Mutations were introduced using the QuikChange II Site-Directed Mutagenesis Kit (Agilent) according to the manufacturer's instructions. Expression and purification of the PKGIα mutants was performed according to a published method[42] as follows: suspension FreeStyle 293-F cells (ThermoFisher Scientific) were transfected with the appropriate PKGIα construct using the stable cationic polymer polyethyleneimine (PEI) as a transfection reagent. After ∼72 h cells were harvested by centrifugation (400g; room temperature; 15 min), re-suspended in ice cold lysis buffer (25 mM sodium phosphate buffer pH 6.8; 10 mM ethylenediaminetetraacetic acid (EDTA); 100 mM NaCl; 10 mM benzamidine hydrochloride; and 10 mM dithiothreitol (DTT)) and frozen in liquid N2. Cells were lysed by three freeze (liquid N2)-thaw (37 °C) cycles and the lysate was clarified by centrifugation at 140,000g and 4 °C for 30 min. […] Protein concentration was determined by Pierce BCA assay (ThermoFisher) and enzyme activity was confirmed using the Omnia kinase assay kit (ThermoFisher).

[1] = 37 °C; value taken for Ca2+ calibration, no reference given; read-out: Kd of Fluo-3; cited from earlier work
Description: To measure cytosolic Ca^2+ levels, cells were loaded with the acetoxymethyl (AM) ester form Fluo-3 (Molecular Probes) and excited continuously at 488 nm. Emitted fluorescence was measured with a 515 nm long-pass filter. Raw fluorescent signals were calibrated off-line as per equation (1). […] Background fluorescence was subtracted from all raw signals. Custom-written Excel routines were used to measure Ca^2+ transient amplitude, diastolic Ca^2+ levels, rate of decay of the Ca^2+ transient and SR Ca^2+ content. SR Ca^2+ content was estimated fr ...

[2] = tested on: PKGIα (analogue-sensitive C42S/M438G), cGMP-activated; assay: Chemical genetic phosphoproteomic screen, cGMP-activated PKGIα C42S/M438G versus unactivated control; format: biochemical, human PKGIα; substrates in rat heart homogenate; details: cGMP activation; of 29 substrates with significant change
Description: We employed a chemical genetic method[18] to identify direct substrates of cGMP-activated PKGIα and disulfide bond-activated PKGIα in heart tissue. This method involves mutation of the ATP binding-site of the kinase of interest so that it can accept a ‘bulky' N6-alkylated ATP analogue for example, N6^−phenylethyl ATP. An oxygen atom on the γ phosphate is also replaced with a sulfur atom—giving an N6-alkylated ATPγS analogue—so that the mutant kinase catalyses the transfer of a thiophosphate group (–PO3S^3−) to its substrates instead of a phosphate. The thiophosphate group is nucleophilic, providing a basis for substrates of the analogue-sensitive kinase to be purified by a ‘covalent capture' protocol. LC–MS/MS allows identification of the substrate and localization of the phosphorylation site. Thiophosphorylated proteins can also be detected with a thiophosphate ester-specific antibody. Analogue-sensitive mutants of PKGIα and PKGIα C42S (which cannot form the activating intermolecular disulfide bond) were generated by mutating Met438 in the ATP-binding domain to Gly. This mutation was chosen based on a previous study where an analogue-sensitive mutant of the catalytic subunit of PKA—which shares sequence homology with PKGIα—was engineered. Detailed protocols are given below.
A pCDNA3 expression vector encoding human FLAG-tagged PKGIα (ref. [41]) underwent site-directed mutagenesis to generate constructs for untagged WT, C42S, M438G and C42S/M438G PKGIα. Mutations were introduced using the QuikChange II Site-Directed Mutagenesis Kit (Agilent) according to the manufacturer's instructions. Expression and purification of the PKGIα mutants was performed according to a published method[42] as follows: suspension FreeStyle 293-F cells (ThermoFisher Scientific) were transfected with the appropriate PKGIα construct using the stable cationic polymer polyethyleneimine (PEI) as a transfection reagent. After ∼72 h cells were harvested by centrifugation (400g; room temperature; 15 min), re-suspended in ice cold lysis buffer (25 mM sodium phosphate buffer pH 6.8; 10 mM ethylenediaminetetraacetic acid (EDTA); 100 mM NaCl; 10 mM benzamidine hydrochloride; and 10 mM dithiothreitol (DTT)) and frozen in liquid N2. Cells were lysed by three freeze (liquid N2)-thaw (37 °C) cycles and the lysate was clarified by centrifugation at 140,000g and 4 °C for 30 min. The soluble protein fraction was loaded onto a pre-equilibrated 8-(2-aminoethylamino)adenosine-3′, 5′-cyclic monophosphate column (8-AEA-cAMP agarose; BioLog, Germany) followed by washing with 20 column volumes of lysis buffer. The column was further washed with lysis buffer +3 M NaCl (5 column volumes) and PKGIα was then eluted with lysis buffer +150 mM NaCl and 500 μM cAMP. Removal of cAMP and buffer exchange was achieved by extensive dialysis against 25 mM sodium phosphate buffer pH 6.8, 2 mM EDTA and 100 mM NaCl. For ITC analysis, WT PKGIα was incubated with 10 mM lipoic acid for 2 h on ice to obtain ∼100% disulfide dimer (confirmed by SDS-PAGE). Oxidized WT or C42S PKGIα was further purified by size exclusion chromatography using a HiLoad 16/600 Superdex 200 pg column (GE Healthcare) with 50 mM sodium phosphate buffer pH 7.4 and 100 mM NaCl. Proteins were concentrated using Amicon Ultra centrifugal filter devices (Merck Millipore). DTT was absent in storage buffers so that the activating disulfide bond would not be reduced and so that the PKGIα M438G mutant would be oxidized to disulfide dimer in the presence of air (confirmed by SDS-PAGE). Protein concentration was determined by Pierce BCA assay (ThermoFisher) and enzyme activity was confirmed using the Omnia kinase assay kit (ThermoFisher).
Male Wistar rats (9–10 weeks; body weight 300–330 g) were euthanized by intraperitoneal injection of sodium pentobarbitone (200 mg kg^−1) with heparin (500 USP units). […]

[3] = tested on: PKGIα Cys42 disulfide bond; details: ref [3], [4]; cited from earlier work
another kinase = details: ref www.nature.com/ncomms/2015/150810/ncomms8920; cited from earlier work
Description: page 15: reasons explained, are complicated to interpret and they are not anticipated to be as effective as many would envisage. […] Now high profile preclinical studies show ...

Structure (SMILES): O=C(O)CCCC[C@@H]1CCSS1 (racemic) [lipoic acid]
- disulfide dimer formed (WT PKGIα): ~100%

Structure (SMILES): Cc1ccc(N(CC(=O)O)CC(=O)O)c(OCCOc2cc(-c3c4cc(Cl)c(=O)cc-4oc4cc(O)c(Cl)cc34)ccc2N(CC(=O)O)CC(=O)O)c1 [Fluo-3]
- Kd [1]: 864 nM

Structure (SMILES): Nc1nc2c(ncn2[C@@H]2O[C@@H]3COP(=O)(O)O[C@H]3[C@H]2O)c(=O)[nH]1 [cGMP, cyclic guanosine monophosphate, reference compound]
- number of proteins with significantly increased phosphorylation when PKGIα was activated [2]: 28
- effect on formation of the Cys42 intermolecular disulfide bond [3]: inhibits formation of the Cys42 intermolecular disulfide bond

Structure (SMILES): CC(=O)N[C@@H](CS)C(=O)O [NAC, N-acetylcysteine]
- effect on oxidation of another kinase (another kinase): promoted the oxidation of that target
